Values of other authors in patent US9308243B2, “Cellular enhancements in biological systems through the use of li-pofullerene and peptide group combinations” (LivePet, LLC, priority 2014, dated 2016).

System: male flies
Conditions: tiny amount added to food supply

Compound: NCCC(=O)N[C@@H](Cc1c[nH]cn1)C(=O)O [carnosine, L-Carnosine]
- increase in the average life span: 20%
